Measurements: patent publication US20250206719A1, “ALBICIDIN DERIVATIVES, THEIR USE AND SYNTHESIS” (TECHNISCHE UNIVERSITÄT BERLIN, priority 2022, published 2025)
≈ marks a conversion by molar mass, not a printed value. Like-named read-outs stand apart in the source and are kept apart here.

What was measured:
S. typhimurium TA100 = test: MIC microdilution assay, S. typhimurium TA100; assay type: cell-based; details: Salmonella enterica, 20 h, read-out: MIC S. typhimurium TA100
Procedure: (§1) The tests were performed using the micro dilution method.
(§2) The determination of MIC values was performed according to the ninth edition of the Approved Standard M07-A9 (CLSI. Methods for Dilution Antimicrobial Susceptibility Tests for Bacteria That Grow Aerobically; Approved Standard-Ninth Edition. CLSI document M07-A9. Wayne, PA: Clinical and Laboratory Standards Institute; 2012.)
(§3) The test was carried out for different bacterial strains (E. coli DSM 1116, E. coli BW25113 [gram negative], B. subtilis DSM 10 [gram positive], M. luteus DSM 1790 [gram positive], S. typhimurium TA100 [gram negative]) and M. phlei DSM 750. 20 μL of cryo stock of each strain were inoculated in 20 mL of LB media (Lysogeny broth: 10 g/L peptone, 5 g/L yeast extract, 5 g/L NaCl) followed by incubation over night at 37° C., 200 rpm. The test inoculum was adjusted by the 0.5 McFarland Standard (OD625 from 0.08 to 0.1). Within 15 min of preparation, the adjusted inoculum suspension was diluted in MHBII media (BBL TM Mueller-Hinton Broth II, Becton, Dickinson and Company, New Jersey/USA) so that each well contained approximately 5×10^5 CFU/mL in a final volume of 100 μL. 95 μL of the inoculum were applied per well and 5 μL of the (diluted) antibiotic substance were added.
(§4) Previously the dry antibiotic compounds were dissolved in DMSO (100%) with a concentration of 2560 μg/mL and the resulting stock solutions were further diluted in DMSO (100%). 5 μL of each antibiotic dilution were applied to the microdilution tray to reach final concentrations of 64 μg/mL to 0.008 μg/mL. One row of each well plate was left as a growth control without antibiotic substances and another row of the microdilution tray was used as sterility control (only MHB II-media). The antimicrobial effect of the solvent (DMSO) was tested by adding 5 μL DMSO to several wells without antibiotics. Purity check and cell titer control were performed according to International Standard M07-A9 on Mueller-Hinton II Agar (Mueller Hinton II Broth, 15 g/L agar-agar). Both microdilution trays and agar plates were incubated at 37° C. for 20 h and subsequently analyzed visually.

E. coli BW25113 [1] = test: MIC determination (medium: MHBII/human serum (1:1)); assay type: cell-based; details: Escherichia coli
Procedure: The test was carried out for bacterial strain, E. coli BW25113 (Gram-negative).
First, 20 μl of glycerol stock of the strain was inoculated in 20 mL LB followed by incubation overnight at 37° C., 200 r.p.m.
The serum was subjected to a heat shock (56° C./30 min in a water bath) before use.
The test inoculum was adjusted by the 0.5 McFarland Standard, so that each well contained approximately 5×10^5 c.f.u. mL^−1 in a final volume of 100 μL. For the adjustment of the test inoculum, MHBII medium and the human serum were used in a mixing ratio of 1:1.
For dilutions, the dry powders were dissolved in DMSO with a concentration of 2.56 mg mL-1 and serially diluted in DMSO (100%). Initial solution and serial dilutions of Ciprofloxacin were prepared in 0.1 N HCl.
Then, 95 μL of the adjusted inoculum was applied per well and 5 μl of each antibiotic dilution was applied to the microdilution tray to reach final concentrations of 8 to 0.016 μg ml^−1.
The antimicrobial effect of the solvent (DMSO or 0.1 N HCL) was tested by adding 5 μL DMSO or 0.1 N HCL to several wells.
One row of each well plate served as a growth control without antibiotic substances, and another row of the microdilution tray served as sterility control (MHB II-media).

[2] = test system: Micrococcus luteus DSM1790; test: MIC microdilution assay, M. luteus DSM 1790; assay type: cell-based; details: read-out: MIC M. luteus DSM 1790
Procedure: as §1, §2, §3, §4

M. phlei DSM 750 = test: MIC microdilution assay, M. phlei DSM 750; assay type: cell-based, Mycobacterium phlei; details: Mycolicibacterium phlei, read-out: MIC M. phlei DSM 750
Procedure: as §1, §2, §3, §4

Bacillus subtilis DSM10 = test: MIC microdilution assay, B. subtilis DSM 10; assay type: cell-based; details: read-out: MIC B. subtilis DSM10
Procedure: as §1, §2, §3, §4

E. coli BW25113 [3] = test: MIC microdilution assay, E. coli BW25113; assay type: cell-based; details: Escherichia coli, read-out: MIC E. coli BW25113
Procedure: as §1, §2, §3, §4

E. coli DSM 1116 = test: MIC microdilution assay, E. coli DSM 1116; assay type: cell-based; details: Escherichia coli, read-out: MIC E. coli DSM1116
Procedure: as §1, §2, §3, §4

[4] = MHBII medium, 37° C., test range 64 to 0.008 μg/mL
[5] = E. coli BW25113, MHBII/human serum 1:1, test range 8 to 0.016 μg/ml, read-out: MIC E. coli + 50% human serum
[6] = BW25113, MHBII medium, 37° C., 20 h, test range 64 to 0.008 μg/mL
[7] = DSM1790, MHBII medium, 37° C., 20 h, test range 64 to 0.008 μg/mL
[8] = DSM750, MHBII medium, 37° C., 20 h, test range 64 to 0.008 μg/mL
[9] = DSM10, MHBII medium, 37° C., 20 h, test range 64 to 0.008 μg/mL
[10] = DSM1116, MHBII medium, 37° C., 20 h, test range 64 to 0.008 μg/mL

Row | SMILES | MIC (S. typhimurium TA100; [4]) [µg/mL] | MIC (E. coli BW25113 [1]; [5]) [µg/mL] | MIC (E. coli BW25113 [3]; [6]) [µg/mL] | MIC [2, 7] [µg/mL] | MIC (M. phlei DSM 750; [8]) [µg/mL] | MIC (Bacillus subtilis DSM10; [9]) [µg/mL] | MIC (E. coli DSM 1116; [10]) [µg/mL] | further results
1 | COc1c(NC(=O)c2ccc(NC(=O)c3ccc(NC(=O)[C@H](Cc4c[nH]nn4)NC(=O)c4ccc(NC(=O)c5ccc6ncccc6c5)cc4)cn3)c(OC)c2O)ccc(C(=O)O)c1O (stereo in doubt) [Compound 2] | ≤ 0.016 | 4 | – | – | – | – | – | –
2 | COc1c(NC(=O)c2ccc(NC(=O)c3ccc(NC(=O)[C@H](Cc4c[nH]nn4)NC(=O)c4ccc(NC(=O)c5cc6ccccc6cn5)cc4)cn3)c(OC)c2O)ccc(C(=O)O)c1O (stereo in doubt) [Compound 10] | – | – | – | – | – | – | – | MIC ([2]; DSM1790, 20 h): 0.063 µg/mL (≈ 0.0715 µM); MIC (M. phlei DSM 750; DSM750, 20 h): 1 µg/mL (≈ 1.14 µM); MIC (Bacillus subtilis DSM10; DSM10, 20 h): 0.063 µg/mL (≈ 0.0715 µM); MIC (E. coli BW25113 [3]; BW25113, 20 h): ≤ 0.016 µg/mL; MIC (S. typhimurium TA100): ≤ 0.016 µg/mL; MIC (E. coli DSM 1116; DSM1116, 20 h): ≤ 0.016 µg/mL; MIC (E. coli BW25113 [1]; BW25113, read-out: MIC E. coli + 50% human serum): 1 µg/mL
3 | COc1c(NC(=O)c2ccc(NC(=O)c3ccc(NC(=O)[C@H](Cc4c[nH]nn4)NC(=O)c4ccc(NC(=O)c5cc(=O)c6cc(F)ccc6o5)cc4)cn3)c(OC)c2O)ccc(C(=O)O)c1O (stereo in doubt) [Compound 12] | ≤ 0.016 | 8 | – | – | – | – | – | –
4 | COc1c(NC(=O)c2ccc(NC(=O)c3ccc(NC(=O)[C@H](Cc4c[nH]nn4)NC(=O)c4ccc(NC(=O)c5ccc6ccccc6n5)cc4)cn3)c(OC)c2O)ccc(C(=O)O)c1O (stereo in doubt) [Compound 13] | ≤ 0.016 | 2 | – | – | – | – | – | –
5 | COc1c(NC(=O)c2ccc(NC(=O)c3ccc(NC(=O)[C@H](Cc4c[nH]nn4)NC(=O)c4ccc(NC(=O)c5cc6cc(O)ccc6[nH]5)cc4)cn3)c(OC)c2O)ccc(C(=O)O)c1O (stereo in doubt) [Compound 14] | 0.125 (≈ 0.141 µM) | ≥ 8 | 0.125 (≈ 0.141 µM) | – | – | – | – | –
6 | COc1c(NC(=O)c2ccc(NC(=O)c3ccc(NC(=O)C(Cc4c[nH]nn4)NC(=O)c4ccc(NC(=O)/C(C)=C/c5ccc(O)cc5)cc4)cn3)c(OC)c2O)ccc(C(=O)O)c1O (stereo not drawn) [3^RD GEN Alb i, reference compound] | 0.016 (≈ 0.0181 µM) | 0.5 | 0.016 (≈ 0.0181 µM) | 0.031 (≈ 0.035 µM) | 0.25 (≈ 0.282 µM) | 0.031 (≈ 0.035 µM) | 0.016 (≈ 0.0181 µM) | –
7 | COc1c(NC(=O)c2ccc(NC(=O)c3ccc(NC(=O)[C@H](Cc4c[nH]nn4)NC(=O)c4ccc(NC(=O)c5ccc6nc(C)ccc6c5)cc4)cn3)c(OC)c2O)ccc(C(=O)O)c1O [Compound 1] | ≤ 0.016 | 0.5 | 0.016 (≈ 0.0179 µM) | 0.063 (≈ 0.0704 µM) | 0.5 (≈ 0.559 µM) | 0.063 (≈ 0.0704 µM) | 0.016 (≈ 0.0179 µM) | –
8 | COc1c(NC(=O)c2ccc(NC(=O)c3ccc(NC(=O)[C@H](Cc4c[nH]nn4)NC(=O)c4ccc(NC(=O)c5cnc6ccccc6c5)cc4)cn3)c(OC)c2O)ccc(C(=O)O)c1O [Compound 3] | ≤ 0.016 | 2 | – | – | – | – | – | –
9 | COc1c(NC(=O)c2ccc(NC(=O)c3ccc(NC(=O)[C@H](Cc4c[nH]nn4)NC(=O)c4ccc(NC(=O)c5c[nH]c6ccccc6c5=O)cc4)cn3)c(OC)c2O)ccc(C(=O)O)c1O [Compound 4] | ≤ 0.016 | 2 | – | – | – | – | – | –
10 | CCn1cc(C(=O)Nc2ccc(C(=O)N[C@@H](Cc3c[nH]nn3)C(=O)Nc3ccc(C(=O)Nc4ccc(C(=O)Nc5ccc(C(=O)O)c(O)c5OC)c(O)c4OC)nc3)cc2)c(=O)c2cc3c(cc21)OCO3 [Compound 6] | ≤ 0.016 | 0.5 | – | – | – | – | – | –
11 | COc1c(NC(=O)c2ccc(NC(=O)c3ccc(NC(=O)[C@H](Cc4c[nH]nn4)NC(=O)c4ccc(NC(=O)c5ccc6nccnc6c5)cc4)cn3)c(OC)c2O)ccc(C(=O)O)c1O [Compound 7] | ≤ 0.016 | 1 | – | – | – | – | – | –
12 | COc1c(NC(=O)c2ccc(NC(=O)c3ccc(NC(=O)C(Cc4c[nH]nn4)NC(=O)c4ccc(NC(=O)c5ccc6ncsc6c5)cc4)cn3)c(OC)c2O)ccc(C(=O)O)c1O (stereo not drawn) [Compound 8] | ≤ 0.016 | 0.5 | ≤ 0.016 | – | 2 (≈ 2.26 µM) | – | ≤ 0.016 | –
13 | COc1c(NC(=O)c2ccc(NC(=O)c3ccc(NC(=O)C(Cc4c[nH]nn4)NC(=O)c4ccc(NC(=O)c5ccc6nc[nH]c6c5)cc4)cn3)c(OC)c2O)ccc(C(=O)O)c1O (stereo not drawn) [Compound 9] | 0.125 (≈ 0.144 µM) | ≥ 8 | 0.125 (≈ 0.144 µM) | 2 (≈ 2.3 µM) | 8 (≈ 9.2 µM) | 2 (≈ 2.3 µM) | 0.125 (≈ 0.144 µM) | –
14 | CCn1cc(C(=O)Nc2ccc(C(=O)N[C@@H](Cc3c[nH]nn3)C(=O)Nc3ccc(C(=O)Nc4ccc(C(=O)Nc5ccc(C(=O)O)c(O)c5OC)c(O)c4OC)nc3)cc2)c(=O)c2ccc(C)nc21 [Compound 11] | ≤ 0.016 | 8 | – | – | – | – | – | –
15 | COc1c(NC(=O)c2ccc(NC(=O)c3ccc(NC(=O)C(Cc4c[nH]nn4)NC(=O)c4ccc(NCc5ccc6ncccc6c5)cc4)cn3)c(OC)c2O)ccc(C(=O)O)c1O (stereo not drawn) [Compound 15] | 0.031 (≈ 0.0358 µM) | 4 to 8 | 0.031 (≈ 0.0358 µM) | 0.125 (≈ 0.144 µM) | 2 (≈ 2.31 µM) | 0.25 to 0.5 (≈ 0.288 to 0.577 µM) | 0.063 (≈ 0.0727 µM) | –
16 | COc1c(NC(=O)c2ccc(NC(=O)c3ccc(NC(=O)C(Cc4c[nH]nn4)NC(=O)c4ccc(NC(=O)c5ccc6nn[nH]c6c5)cc4)cn3)c(OC)c2O)ccc(C(=O)O)c1O (stereo not drawn) [Compound 16] | 0.125 (≈ 0.144 µM) | 8 | 0.031 (≈ 0.0356 µM) | 1 (≈ 1.15 µM) | 4 to 8 (≈ 4.59 to 9.19 µM) | 0.5 to 1 (≈ 0.574 to 1.15 µM) | 0.063 (≈ 0.0723 µM) | –
